# Experimental data published in PubChem BioAssay AID2060511 (Molecular Pharmacology Branch, DTP, NCI, 2025).
# System: 422866-222-R5-J1-PDC spheroids with HUVEC/MSC, viability
# Assay: Anticancer human tumor 422866-222-R5-J1-PDC patient-derived pancreatic adenocarcinoma cell line growth inhibition [GQUAD]
# Conditions: for IC50: curve of first compound; for viability, T/C: stronger effect = lower value
# Outline: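 Viability of tumor cells grown as complex spheroids with endothelial and stromal cells, exposed to drug combinations. Top concentration at or near clinical Cmax (else 10 microM), diluted in half-log increments.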
# [1] = second compound 0.0316 µM, first compound 0.0316 µM
# [2] = second compound 0.0316 µM, first compound 0.316 µM
# [3] = second compound 0.1 µM, first compound 0.0316 µM
# [4] = second compound 0.1 µM, first compound 0.316 µM
# [5] = second compound 0.316 µM, first compound 0.0316 µM
# [6] = second compound 0.316 µM, first compound 0.316 µM
# [7] = second compound 1 µM, first compound 0.0316 µM
# [8] = second compound 1 µM, first compound 0.316 µM
# [9] = second compound 3.16 µM, first compound 0.0316 µM
# [10] = second compound 3.16 µM, first compound 0.316 µM
# [11] = second compound 10 µM, first compound 0.0316 µM
# [12] = second compound 10 µM, first compound 0.316 µM
# [13] = second compound 0.0316 µM, first compound 0.000999 µM
# [14] = second compound 0.0316 µM, first compound 0.00316 µM
# [15] = second compound 0.0316 µM, first compound 0.00999 µM
# [16] = second compound 0.0316 µM, first compound 0.0999 µM
# [17] = second compound 0.1 µM, first compound 0.000999 µM
# [18] = second compound 0.1 µM, first compound 0.00316 µM
# [19] = second compound 0.1 µM, first compound 0.00999 µM
# [20] = second compound 0.1 µM, first compound 0.0999 µM
# [21] = second compound 0.316 µM, first compound 0.000999 µM
# [22] = second compound 0.316 µM, first compound 0.00316 µM
# [23] = second compound 0.316 µM, first compound 0.00999 µM
# [24] = second compound 0.316 µM, first compound 0.0999 µM
# [25] = second compound 1 µM, first compound 0.000999 µM
# [26] = second compound 1 µM, first compound 0.00316 µM
# [27] = second compound 1 µM, first compound 0.00999 µM
# [28] = second compound 1 µM, first compound 0.0999 µM
# [29] = second compound 3.16 µM, first compound 0.000999 µM
# [30] = second compound 3.16 µM, first compound 0.00316 µM
# [31] = second compound 3.16 µM, first compound 0.00999 µM
# [32] = second compound 3.16 µM, first compound 0.0999 µM
# [33] = second compound 10 µM, first compound 0.000999 µM
# [34] = second compound 10 µM, first compound 0.00316 µM
# [35] = second compound 10 µM, first compound 0.00999 µM
# [36] = second compound 10 µM, first compound 0.0999 µM
# 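Further: spheroids exposed to compounds for seven days before reading.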
# 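Wherever viability, T/C is given: percent viability relative to DMSO vehicle control taken as 100%.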
smiles,measurement,setting,value
C=CC(=O)N1CCN(c2nc(=O)n(-c3c(C)ccnc3C(C)C)c3nc(-c4c(O)cccc4F)c(F)cc23)C(C)C1 (stereo unspecified) + CN(C)c1ccc(Nc2c3ccc(NC(=O)CCN4CCCC4)cc3nc3cc(NC(=O)CCN4CCCC4)ccc23)cc1,IC50,second compound 0.0316 µM,< 31.6 nM
same,IC50,second compound 0.1 µM,< 31.6 nM
same,IC50,second compound 0.316 µM,< 31.6 nM
same,IC50,second compound 1 µM,< 31.6 nM
same,IC50,second compound 3.16 µM,< 31.6 nM
same,IC50,second compound 10 µM,< 31.6 nM
same,"viability, T/C",[1],39.3%
same,"viability, T/C","second compound 0.0316 µM, first compound 0.1 µM",32.5%
same,"viability, T/C",[2],29.6%
same,"viability, T/C","second compound 0.0316 µM, first compound 1 µM",25.2%
same,"viability, T/C","second compound 0.0316 µM, first compound 3.16 µM",26.4%
same,"viability, T/C","second compound 0.0316 µM, first compound 10 µM",30%
same,"viability, T/C",[3],37.9%
same,"viability, T/C","second compound 0.1 µM, first compound 0.1 µM",29.4%
same,"viability, T/C",[4],26.6%
same,"viability, T/C","second compound 0.1 µM, first compound 1 µM",22.7%
same,"viability, T/C","second compound 0.1 µM, first compound 3.16 µM",27.3%
same,"viability, T/C","second compound 0.1 µM, first compound 10 µM",26.4%
same,"viability, T/C",[5],41.9%
same,"viability, T/C","second compound 0.316 µM, first compound 0.1 µM",25.2%
same,"viability, T/C",[6],29.9%
same,"viability, T/C","second compound 0.316 µM, first compound 1 µM",25.7%
same,"viability, T/C","second compound 0.316 µM, first compound 3.16 µM",30.7%
same,"viability, T/C","second compound 0.316 µM, first compound 10 µM",28.7%
same,"viability, T/C",[7],27.8%
same,"viability, T/C","second compound 1 µM, first compound 0.1 µM",27.9%
same,"viability, T/C",[8],25.1%
same,"viability, T/C","second compound 1 µM, first compound 1 µM",23.9%
same,"viability, T/C","second compound 1 µM, first compound 3.16 µM",24.7%
same,"viability, T/C","second compound 1 µM, first compound 10 µM",28%
same,"viability, T/C",[9],31.2%
same,"viability, T/C","second compound 3.16 µM, first compound 0.1 µM",25.5%
same,"viability, T/C",[10],24.3%
same,"viability, T/C","second compound 3.16 µM, first compound 1 µM",25.3%
same,"viability, T/C","second compound 3.16 µM, first compound 3.16 µM",25%
same,"viability, T/C","second compound 3.16 µM, first compound 10 µM",28.3%
same,"viability, T/C",[11],29.5%
same,"viability, T/C","second compound 10 µM, first compound 0.1 µM",27.3%
same,"viability, T/C",[12],25.7%
same,"viability, T/C","second compound 10 µM, first compound 1 µM",29%
same,"viability, T/C","second compound 10 µM, first compound 3.16 µM",28.8%
same,"viability, T/C","second compound 10 µM, first compound 10 µM",29.1%
CC[C@@]1(O)C(=O)OCc2c1cc1n(c2=O)Cc2cc3c(CN(C)C)c(O)ccc3nc2-1 + CN(C)c1ccc(Nc2c3ccc(NC(=O)CCN4CCCC4)cc3nc3cc(NC(=O)CCN4CCCC4)ccc23)cc1,IC50,second compound 0.0316 µM,93.9 nM
same,IC50,second compound 0.1 µM,> 316 nM
same,IC50,second compound 0.316 µM,89.9 nM
same,IC50,second compound 1 µM,135 nM
same,IC50,second compound 3.16 µM,85.3 nM
same,IC50,second compound 10 µM,175 nM
same,"viability, T/C",[13],99.1%
same,"viability, T/C",[14],95.8%
same,"viability, T/C",[15],96%
same,"viability, T/C",[1],76%
same,"viability, T/C",[16],47.3%
same,"viability, T/C",[2],49.7%
same,"viability, T/C",[17],87.2%
same,"viability, T/C",[18],104%
same,"viability, T/C",[19],98%
same,"viability, T/C",[3],64.3%
same,"viability, T/C",[20],50.9%
same,"viability, T/C",[4],48.7%
same,"viability, T/C",[21],90.9%
same,"viability, T/C",[22],78.6%
same,"viability, T/C",[23],95.2%
same,"viability, T/C",[5],65.1%
same,"viability, T/C",[24],48.3%
same,"viability, T/C",[6],48.6%
same,"viability, T/C",[25],96.8%
same,"viability, T/C",[26],92.9%
same,"viability, T/C",[27],78.6%
same,"viability, T/C",[7],69.8%
same,"viability, T/C",[28],56.5%
same,"viability, T/C",[8],35.8%
same,"viability, T/C",[29],84.1%
same,"viability, T/C",[30],79.2%
same,"viability, T/C",[31],87.8%
same,"viability, T/C",[9],72.5%
same,"viability, T/C",[32],46.1%
same,"viability, T/C",[10],46.7%
same,"viability, T/C",[33],77.5%
same,"viability, T/C",[34],96.3%
same,"viability, T/C",[35],91.8%
same,"viability, T/C",[11],69.8%
same,"viability, T/C",[36],61.4%
same,"viability, T/C",[12],40.3%
CCc1c2c(nc3ccc(O)cc13)-c1cc3c(c(=O)n1C2)COC(=O)[C@]3(O)CC + CN(C)c1ccc(Nc2c3ccc(NC(=O)CCN4CCCC4)cc3nc3cc(NC(=O)CCN4CCCC4)ccc23)cc1,IC50,second compound 0.0316 µM,6.8 nM
same,IC50,second compound 0.1 µM,49 nM
same,IC50,second compound 0.316 µM,2.86 nM
same,IC50,second compound 1 µM,2.41 nM
same,IC50,second compound 3.16 µM,110 nM
same,IC50,second compound 10 µM,> 316 nM
same,"viability, T/C",[13],64.9%
same,"viability, T/C",[14],54.1%
same,"viability, T/C",[15],46.6%
same,"viability, T/C",[1],46.7%
same,"viability, T/C",[16],48%
same,"viability, T/C",[2],47.1%
same,"viability, T/C",[17],63.6%
same,"viability, T/C",[18],46.9%
same,"viability, T/C",[19],46.7%
same,"viability, T/C",[3],57.1%
same,"viability, T/C",[20],57.8%
same,"viability, T/C",[4],39.2%
same,"viability, T/C",[21],77.5%
same,"viability, T/C",[22],47.2%
same,"viability, T/C",[23],46.4%
same,"viability, T/C",[5],55.1%
same,"viability, T/C",[24],50.5%
same,"viability, T/C",[6],37.3%
same,"viability, T/C",[25],54%
same,"viability, T/C",[26],43.4%
same,"viability, T/C",[27],45.2%
same,"viability, T/C",[7],57.1%
same,"viability, T/C",[28],46.8%
same,"viability, T/C",[8],40.5%
same,"viability, T/C",[29],58.6%
same,"viability, T/C",[30],54.3%
same,"viability, T/C",[31],40.6%
same,"viability, T/C",[9],48.5%
same,"viability, T/C",[32],63.6%
same,"viability, T/C",[10],43.9%
same,"viability, T/C",[33],58.4%
same,"viability, T/C",[34],49.7%
same,"viability, T/C",[35],58.3%
same,"viability, T/C",[11],50.8%
same,"viability, T/C",[36],64.5%
same,"viability, T/C",[12],41%
